The values below come from patent publication US8975398B2, “NAMPT inhibitors” (AbbVie Inc., priority 2012, dated 2015).

Test [1] has as its target NAMPT (human, recombinant, C-terminally His-tagged) (Homo sapiens, UniProt P43490). The experiment in a line: Time-Resolved Fluorescence Resonance Energy Transfer (TR-FRET) Binding Assay of NAMPT. The conditions noted are these: 6.8 nM NAMPT, 200 nM probe, equilibrated 3 hours, absence of substrates. The procedure:
Determination of the utility of compounds having Formula (I) as binders to and inhibitors of NAMPT was performed using Time-Resolved Fluorescence Resonance Energy Transfer (TR-FRET) binding assays.
Time-Resolved Fluorescence Resonance Energy Transfer (TR-FRET) Binding Assay of NAMPT
Test compounds were serially diluted (typically 11 half log dilutions) in neat DMSO to 50× final concentrations prior to dilution with assay buffer (50 mM HEPES (NaOH), pH 7.5, 100 mM NaCl, 10 mM MgCl2, 1 mM DTT, 1% Glycerol) to 3× and 6% DMSO. Six μL were transferred to 384-well low-volume plates (Owens Corning #3673). To this, 12 μL of a 1.5× solution containing enzyme, probe and antibody were added. Final concentrations in the 18 μL, reactions were 1× assay buffer, 2% DMSO, 6.8 nM NAMPT (human, recombinant, C-terminally His-tagged), 200 nM probe (a potent nicotinamide-competitive inhibitor conjugated to Oregon Green 488) and 1 nM Tb-anti-His antibody (Invitrogen #PV5895). Reactions were equilibrated at room temperature for 3 hours prior to reading on an Envision multi-label plate reader (Perkin Elmer; Ex=337 nm, Em=520 and 495 nm). Time-resolved FRET ratios (Em520/Em495) were normalized to controls, plotted as a function of compound concentration and fit with the four-parameter logistic equation to determine IC50s.
A general note: TR-FRET usually uses a lanthanide donor and a delayed reading to cut background.

The target in the next test is NAMPT (Homo sapiens, UniProt P43490). Nature of the test: Time-Resolved Fluorescence Resonance Energy Transfer (TR-FRET) Binding Assay of NAMPT with PRPP. The note with it: 2 nM NAMPT, 2 nM probe, 200 uM PRPP and 2.5 mM ATP, equilibrated 16 hours. The procedure: Time-Resolved Fluorescence Resonance Energy Transfer (TR-FRET) Binding Assay of NAMPT with PRPP
Compound handling and data processing were identical to the assay in the absence of substrates (above). Final concentrations were 1× assay buffer, 2% DMSO, 2 nM NAMPT, 2 nM probe, 1 nM Tb-anti-His antibody (Invitrogen #PV5895), 200 uM PRPP and 2.5 mM ATP. Reactions were equilibrated for 16 hours prior to measurement to allow for potential enzymatic modification of test compounds.

Chain of NAMPT (human, recombinant, C-terminally His-tagged) (P43490 whole entry): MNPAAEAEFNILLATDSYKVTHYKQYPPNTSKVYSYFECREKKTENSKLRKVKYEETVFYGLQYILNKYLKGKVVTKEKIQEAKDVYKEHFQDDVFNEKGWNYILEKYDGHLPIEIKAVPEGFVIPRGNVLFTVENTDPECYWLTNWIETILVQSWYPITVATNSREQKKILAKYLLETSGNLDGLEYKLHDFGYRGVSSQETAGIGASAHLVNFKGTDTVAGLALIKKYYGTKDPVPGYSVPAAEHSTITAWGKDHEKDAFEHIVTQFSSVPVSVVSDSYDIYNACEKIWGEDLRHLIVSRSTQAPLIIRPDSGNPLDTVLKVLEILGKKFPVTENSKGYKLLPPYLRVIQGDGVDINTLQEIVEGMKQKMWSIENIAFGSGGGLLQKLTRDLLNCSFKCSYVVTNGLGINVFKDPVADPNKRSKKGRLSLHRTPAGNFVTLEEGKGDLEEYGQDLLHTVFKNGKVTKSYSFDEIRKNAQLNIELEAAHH
Chain of NAMPT (P43490 whole entry): as above

One may read the IC50 as the midpoint of a concentration-inhibition curve. For the compound `O=C(Nc1ccc(OC2CCN(C(=O)CC3CCOCC3)CC2)cc1)C1CN(c2cccnc2)C1` [Example 1, 1-(pyridin-3-yl)-N-(4-{[1-(tetrahydro-2H-pyran-4-ylacetyl)piperidin-4-yl]oxy}phenyl)azetidine-3-carboxamide], the IC50 in test [1] turned out to be 120 nM; at NAMPT it was 0.386 nM. In the case of `CC(C)(O)C(=O)N1CCC(c2ccc(NC(=O)C3CN(c4cccnc4C#N)C3)cc2)CC1` [Example 2, 1-(2-cyanopyridin-3-yl)-N-{4-[1-(2-hydroxy-2-methylpropanoyl)piperidin-4-yl]phenyl}azetidine-3-carboxamide], the IC50 is 22.3 nM in test [1] and 20 nM on NAMPT. With `O=C(Nc1ccc(OC2CCN(C(=O)CC3CCOCC3)CC2)cc1)C1CN(c2cccnc2C(F)(F)F)C1` [Example 3, N-(4-{[1-(tetrahydro-2H-pyran-4-ylacetyl)piperidin-4-yl]oxy}phenyl)-1-[2-(trifluoromethyl)pyridin-3-yl]azetidine-3-carboxamide], the IC50 in test [1] worked out at 357 nM; at NAMPT, 19.2 nM.

Take `Cc1ncccc1N1CC(C(=O)Nc2ccc(OC3CCN(C(=O)CC4CCOCC4)CC3)cc2)C1` [Example 4, 1-(2-methylpyridin-3-yl)-N-(4-{[1-(tetrahydro-2H-pyran-4-ylacetyl)piperidin-4-yl]oxy}phenyl)azetidine-3-carboxamide]: the values for the IC50 (in test [1]; at NAMPT) were 424 nM and 24 nM, respectively. On to `Cc1ccncc1N1CC(C(=O)Nc2ccc(OC3CCN(C(=O)CC4CCOCC4)CC3)cc2)C1` [Example 5, 1-(4-methylpyridin-3-yl)-N-(4-{[1-(tetrahydro-2H-pyran-4-ylacetyl)piperidin-4-yl]oxy}phenyl)azetidine-3-carboxamide], for which the results for the 50% inhibitory concentration (IC50) (in test [1]; on NAMPT) were 107 nM and 10.2 nM, respectively. Taken in the same sequence, the figures for `O=C(Nc1ccc(OC2CCN(C(=O)CC3CCOCC3)CC2)cc1)C1CN(c2cnccc2F)C1` [Example 6, 1-(4-fluoropyridin-3-yl)-N-(4-{[1-(tetrahydro-2H-pyran-4-ylacetyl)piperidin-4-yl]oxy}phenyl)azetidine-3-carboxamide] were 544 nM and 2.34 nM.

`O=C(Nc1ccc(OC2CCN(C(=O)CC3CCOCC3)CC2)cc1)C1CN(c2cnccc2C(F)(F)F)C1` [Example 7, N-(4-{[1-(tetrahydro-2H-pyran-4-ylacetyl)piperidin-4-yl]oxy}phenyl)-1-[4-(trifluoromethyl)pyridin-3-yl]azetidine-3-carboxamide]: the results for the IC50 (in test [1]; on NAMPT) were 104 nM and 84.7 nM, respectively. Taken in the same sequence, the figures for `CC(C)(C)OC(=O)N1CCC(Oc2ccc(NC(=O)[C@H]3CCN(c4cccnc4)C3)cc2)CC1` [Example 8, tert-butyl 4-[4-({[(3S)-1-(pyridin-3-yl)pyrrolidin-3-yl]carbonyl}amino)phenoxy]piperidine-1-carboxylate] were 3360 nM and 5.3 nM. For `CC(C)(C)OC(=O)N1CCC(Oc2ccc(NC(=O)[C@@H]3CCN(c4cccnc4)C3)cc2)CC1` [Example 9, tert-butyl 4-[4-({[(3R)-1-(pyridin-3-yl)pyrrolidin-3-yl]carbonyl}amino)phenoxy]piperidine-1-carboxylate], in that order: 8620 nM and 17.2 nM. Taken in the same sequence, the figures for `O=C(Nc1ccc(C2CCN(C(=O)[C@@H]3CCCO3)CC2)cc1)C1CN(c2cccnc2)C1` [Example 10, 1-(pyridin-3-yl)-N-(4-{1-[(2S)-tetrahydrofuran-2-ylcarbonyl]piperidin-4-yl}phenyl)azetidine-3-carboxamide] were 34.5 nM and 0.518 nM. For the compound `O=C(Nc1ccc(OC2CCN(C(=O)CC3CCOCC3)CC2)cc1)[C@H]1CCN(c2cccnc2)C1` [Example 11, (3S)-1-(pyridin-3-yl)-N-(4-{[1-(tetrahydro-2H-pyran-4-ylacetyl)piperidin-4-yl]oxy}phenyl)pyrrolidine-3-carboxamide], the IC50 in test [1] worked out at 2370 nM; on NAMPT it was 1.93 nM. For `CC(C)C(=O)N1CCC(Oc2ccc(NC(=O)[C@H]3CCN(c4cccnc4)C3)cc2)CC1` [Example 12, (3S)-N-(4-{[1-(2-methylpropanoyl)piperidin-4-yl]oxy}phenyl)-1-(pyridin-3-yl)pyrrolidine-3-carboxamide], in that order: 1410 nM and 2.05 nM. On to `O=C(Nc1ccc(OC2CCN(C(=O)[C@@H]3CCCO3)CC2)cc1)[C@H]1CCN(c2cccnc2)C1` [Example 13, (3S)-1-(pyridin-3-yl)-N-[4-({1-[(2S)-tetrahydrofuran-2-ylcarbonyl]piperidin-4-yl}oxy)phenyl]pyrrolidine-3-carboxamide], for which the IC50 in test [1] came out at 858 nM; at NAMPT, 2.88 nM. For `O=C(Nc1ccc(OC2CCN(C(=O)[C@H]3CCCO3)CC2)cc1)[C@H]1CCN(c2cccnc2)C1` [Example 14, (3S)-1-(pyridin-3-yl)-N-[4-({1-[(2R)-tetrahydrofuran-2-ylcarbonyl]piperidin-4-yl}oxy)phenyl]pyrrolidine-3-carboxamide], in that order: 3840 nM and 3.08 nM.

In the case of `O=C(Nc1ccc(OC2CCN(C(=O)C3CCOC3)CC2)cc1)[C@H]1CCN(c2cccnc2)C1` (stereo partly drawn) [Example 15, (3S)-1-(pyridin-3-yl)-N-(4-{[1-(tetrahydrofuran-3-ylcarbonyl)piperidin-4-yl]oxy}phenyl)pyrrolidine-3-carboxamide], the IC50 amounted to 1660 nM in test [1] and 2.49 nM on NAMPT. Taken in the same sequence, the figures for `O=C(Nc1ccc(OC2CCN(C(=O)CC3CC3)CC2)cc1)[C@H]1CCN(c2cccnc2)C1` [Example 16, (3S)-N-(4-{[1-(cyclopropylacetyl)piperidin-4-yl]oxy}phenyl)-1-(pyridin-3-yl)pyrrolidine-3-carboxamide] were 2480 nM and 4.13 nM. Taken in the same sequence, the figures for `CC(C)(O)C(=O)N1CCC(Oc2ccc(NC(=O)[C@H]3CCN(c4cccnc4)C3)cc2)CC1` [Example 17, (3S)-N-(4-{[1-(2-hydroxy-2-methylpropanoyl)piperidin-4-yl]oxy}phenyl)-1-(pyridin-3-yl)pyrrolidine-3-carboxamide] were 3510 nM and 2.36 nM. For `O=C(Nc1ccc(OC2CCN(C(=O)CC(F)(F)F)CC2)cc1)[C@H]1CCN(c2cccnc2)C1` [Example 18, (3S)-1-(pyridin-3-yl)-N-(4-{[1-(3,3,3-trifluoropropanoyl)piperidin-4-yl]oxy}phenyl)pyrrolidine-3-carboxamide], in that order: 2740 nM and 5.32 nM. In the case of `CC[C@H](C)C(=O)N1CCC(Oc2ccc(NC(=O)[C@H]3CCN(c4cccnc4)C3)cc2)CC1` [Example 19, (3S)-N-[4-({1-[(2S)-2-methylbutanoyl]piperidin-4-yl}oxy)phenyl]-1-(pyridin-3-yl)pyrrolidine-3-carboxamide], the figures for the IC50 (in test [1]; at NAMPT) were 1170 nM and 0.554 nM, respectively. Consider `CC(C)(C)OC(=O)N1CCC(Oc2ccc(C(=O)N[C@H]3CCN(c4cccnc4)C3)cc2)CC1` [Example 27, tert-butyl 4-(4-{[(3S)-1-(pyridin-3-yl)pyrrolidin-3-yl]carbamoyl}phenoxy)piperidine-1-carboxylate], for which, on NAMPT, the half-inhibitory concentration (IC50) came out at 11.2 nM. Same read-out and setting: for `CC(C)(C)OC(=O)N1CCC(Oc2ccc(C(=O)N[C@@H]3CCN(c4cccnc4)C3)cc2)CC1` [Example 28, tert-butyl 4-(4-{[(3R)-1-(pyridin-3-yl)pyrrolidin-3-yl]carbamoyl}phenoxy)piperidine-1-carboxylate] the value was 2.51 nM.
